The values that follow come from US9107410B2, “Pesticidal compositions and processes related thereto” (Dow AgroSciences LLC, priority 2011, dated 2015).

Holding throughout (format): in vivo
Test [1] has as its system Corn Earworm (CEW) (Helicoverpa zea). Put plainly: Bioassay on corn earworm (CEW), 128-well diet tray assay. The note with it: 168 h, read-out: % Mortality CEW 50 μg/cm^2. The protocol:
(§1) Certain molecules disclosed in this document were tested against BAW and CEW using procedures described in the following examples. In the reporting of the results, the “BAW & CEW Rating Table” was used (See Table Section).
Bioassays on CEW (Helicoverpa zea)
Bioassays on CEW were conducted using a 128-well diet tray assay. One to five second instar CEW larvae were placed in each well (3 mL) of the diet tray that had been previously filled with 1 mL of artificial diet to which 50 μg/cm^2 of the test compound (dissolved in 50 μL of 90:10 acetone-water mixture) had been applied (to each of eight wells) and then allowed to dry. Trays were covered with a clear self-adhesive cover, and held at 25° C., 14:10 light-dark for five to seven days. Percent mortality was recorded for the larvae in each well; activity in the eight wells was then averaged. The results are indicated in the table entitled “Table: Bio Results” (See Table Section).

Test [2] concerns Beet Armyworm (BAW) (Spodoptera exigua). Put plainly: Bioassay on beet armyworm (BAW), 128-well diet tray assay. The settings on record: 168 h, read-out: % Mortality BAW 50 μg/cm^2. The protocol: as §1
Bioassays on BAW (Spodoptera exigua)
Bioassays on BAW were conducted using a 128-well diet tray assay. One to five second instar BAW larvae were placed in each well (3 mL) of the diet tray that had been previously filled with 1 mL of artificial diet to which 50 μg/cm^2 of the test compound (dissolved in 50 μL of 90:10 acetone-water mixture) had been applied (to each of eight wells) and then allowed to dry. Trays were covered with a clear self-adhesive cover, and held at 25° C., 14:10 light-dark for five to seven days. Percent mortality was recorded for the larvae in each well; activity in the eight wells was then averaged. The results are indicated in the table entitled “Table: Bio Results” (See Table Section).

Test [3] has as its system Green Peach Aphid (GPA) (Myzus persicae). Put plainly: Bioassay on green peach aphid (GPA), foliar spray on cabbage seedlings. The settings on record: 72 h, read-out: % Mortality GPA 200 ppm. The protocol: Certain molecules disclosed in this document were tested against GPA using procedures described in the following example. In the reporting of the results, the “GPA Rating Table” was used (See Table Section).
Cabbage seedlings grown in 3-inch pots, with 2-3 small (3-5 cm) true leaves, were used as test substrate. The seedlings were infested with 20-50 GPA (wingless adult and nymph stages) one day prior to chemical application. Four pots with individual seedlings were used for each treatment. Test compounds (2 mg) were dissolved in 2 mL of acetone/methanol (1:1) solvent, forming stock solutions of 1000 ppm test compound. The stock solutions were diluted 5× with 0.025% Tween 20 in H2O to obtain the solution at 200 ppm test compound. A hand-held aspirator-type sprayer was used for spraying a solution to both sides of […] leaves until runoff. Reference plants (solvent check) were sprayed with the diluent only containing 20% by volume of acetone/methanol (1:1) solvent. Treated plants were held in a holding room for three days at approximately 25° C. and ambient relative humidity (RH) prior to grading. Evaluation was conducted by counting the number of live aphids per plant under a microscope. Percent Control was measured by using Abbott's correction formula (W. S. Abbott, “A Method of Computing the Effectiveness of an Insecticide” J. Econ. Entomol. 18 (1925), pp. 265-267) as follows. Corrected % Control=100*(X−Y)/X • where • X=No. of live aphids on solvent check plants and • Y=No. of live aphids on treated plants

Where [4] appears, read: 50 μg/cm^2 on artificial diet, second instar larvae, 25° C., five to seven days, average of eight wells.
Where [5] appears, read: 200 ppm foliar spray on cabbage seedlings, graded after three days, Abbott corrected % control.

Each structure is given as a SMILES string. Read-outs that look alike come from different tables or passages of the source.

`Cc1cccc(C)c1NC(=S)NC1CC1c1ccc(-c2ncn(-c3ccc(OC(F)(F)F)cc3)n2)cc1` (stereo not drawn) [Compound 12, 1-(2,6-Dimethylphenyl)-3-(2-(4-(1-(4-(trifluoromethoxy)phenyl)-1H-1,2,4-triazol-3-yl)phenyl)cyclopropyl)thiourea]: the mortality at 50 µg/cm2 in test [1] (setting [4]) and in test [2] (setting [4]) was 50 to 100% throughout. The mortality at 200 ppm in test [3] (setting [5]) lay in the range of 0 to 80%.
Turning to `O=C(NC1CC1c1ccc(-c2ncn(-c3ccc(OC(F)(F)F)cc3)n2)cc1)Oc1c(Cl)cccc1Cl` (stereo not drawn) [Compound 28, 2,6-Dichlorophenyl 2-(4-(1-(4-(trifluoromethoxy)phenyl)-1H-1,2,4-triazol-3-yl)phenyl)-cyclopropylcarbamate], the mortality at 50 µg/cm2 in test [1] and in test [2] was 0% each time. In test [3] (foliar), the mortality at 200 ppm lay within 0 to 80%.
Take `O=C(NC1CC1c1ccc(-c2ncn(-c3ccc(OC(F)(F)F)cc3)n2)cc1)Oc1ccccc1C1CCCC1` (stereo not drawn) [Compound 23, 2-Cyclopentylphenyl 2-(4-(1-(4-(trifluoromethoxy)phenyl)-1H-1,2,4-triazol-3-yl)phenyl)-cyclopropylcarbamate]: the mortality at 50 µg/cm2 was 50 to 100% in test [1] and 0% in test [2]. For the same compound, the mortality at 200 ppm in test [3] (foliar) was 0 to 80%.
As for `Cc1cc(Cl)ccc1NC(=S)NC1CC1c1ccc(-c2ncn(-c3ccc(OC(F)(F)F)cc3)n2)cc1` (stereo not drawn) [Compound 4, 1-(4-Chloro-2-methylphenyl)-3-(2-{4-[1-(4-trifluoromethoxyphenyl)-1H-[1,2,4]triazol-3-yl]phenyl}cyclopropyl)thiourea], the mortality at 50 µg/cm2 in test [1] (setting [4]) and in test [2] (setting [4]) was 50 to 100% in each case. The mortality at 200 ppm in test [3] (setting [5]) turned out to be 0%.
Turning to `Cc1cc(C)c(NC(=O)NC2CC2c2ccc(-c3ncn(-c4ccc(OC(F)(F)F)cc4)n3)cc2)c(C)c1` (stereo not drawn) [Compound 30, 1-Mesityl-3-(2-(4-(1-(4-(trifluoromethoxy)phenyl)-1H-1,2,4-triazol-3-yl)phenyl)-cyclopropyl)urea], the mortality at 50 µg/cm2 in test [1] (setting [4]) and in test [2] (setting [4]) was 0% throughout. For the same compound, in test [3] (setting [5]), the mortality at 200 ppm fell in the range of 0 to 80%.
With `COc1ccc(NC(=S)NC2CC2c2ccc(-c3ncn(-c4ccc(OC(F)(F)F)cc4)n3)cc2)c(C)c1` (stereo not drawn) [Compound 3, 1-(4-Methoxy-2-methylphenyl)-3-(2-{4-[1-(4-trifluoromethoxyphenyl)-1H-[1,2,4]triazol-3-yl]phenyl}cyclopropyl)thiourea], the mortality at 50 µg/cm2 in test [1] (setting [4]) and in test [2] (setting [4]) was 50 to 100% each time. Also, the mortality at 200 ppm in test [3] (setting [5]) is 0 to 80%.
Regarding `FC(F)(F)Oc1ccc(-n2cnc(-c3ccc(C4CC4NC(=S)Nc4ccccc4Cl)cc3)n2)cc1` (stereo not drawn) [Compound 5, 1-(2-Chlorophenyl)-3-(2-{4-[1-(4-trifluoromethoxyphenyl)-1H-[1,2,4]triazol-3-yl]phenyl}cyclopropyl)thiourea], the mortality at 50 µg/cm2 in test [1] (setting [4]) and in test [2] (setting [4]) was 50 to 100% in each case. In addition, the mortality at 200 ppm in test [3] (setting [5]) was determined as 0%.
On to `O=C(NC1CC1c1ccc(-c2ncn(-c3ccc(OC(F)(F)F)cc3)n2)cc1)NC1CC1c1ccc(-c2ncn(-c3ccc(OC(F)(F)F)cc3)n2)cc1` (stereo not drawn) [Compound 32, 1,3-bis(2-(4-(1-(4-(trifluoromethoxy)phenyl)-1H-1,2,4-triazol-3-yl)phenyl)cyclopropyl)urea], for which the figures for the mortality at 50 µg/cm2 in test [1] (setting [4]) and in test [2] (setting [4]) were 50 to 100% and 0%, respectively. For the same compound, the mortality at 200 ppm in test [3] (setting [5]) is 0 to 80%.
Consider `FC(F)(F)Oc1ccc(-n2cnc(-c3ccc(C4CC4NC(=S)Nc4ccc(C(F)(F)F)cc4)cc3)n2)cc1` (stereo not drawn) [Compound 8, 1-(2-{4-[1-(4-Trifluoromethoxyphenyl)-1H-[1,2,4]triazol-3-yl]phenyl}-cyclopropyl)-3-(4-trifluoromethylphenyl)thiourea], for which the mortality at 50 µg/cm2 in test [1] (setting [4]) and in test [2] (setting [4]) was 50 to 100% throughout. For the same compound, in test [3] (setting [5]), the mortality at 200 ppm lay in the range of 0 to 80%.
With `CCc1cccc(CC)c1NC(=S)NC1CC1c1ccc(-c2ncn(-c3ccc(OC(F)(F)F)cc3)n2)cc1` (stereo not drawn) [Compound 6, 1-(2,6-Diethylphenyl)-3-(2-{4-[1-(4-trifluoromethoxyphenyl)-1H-[1,2,4]triazol-3-yl]phenyl}cyclopropyl)thiourea], the mortality at 50 µg/cm2 in test [1] (setting [4]) and in test [2] (setting [4]) was 50 to 100% each time. Also, the mortality at 200 ppm in test [3] (setting [5]) was in the range of 0 to 80%.
On to `FC(F)(F)Oc1ccc(-n2cnc(-c3ccc(C4CC4NC(=S)Nc4ccccc4)cc3)n2)cc1` (stereo not drawn) [Compound 1, 1-phenyl-3-(2-{4-[1-(4-trifluoromethoxyphenyl)-1H-[1,2,4]triazol-3-yl]phenyl}cyclopropyl)thiourea], for which the mortality at 50 µg/cm2 in test [1] (setting [4]) and in test [2] (setting [4]) was 50 to 100% throughout. In addition, in test [3] (setting [5]), the mortality at 200 ppm was found to be 0%.
With `CC(C)c1ccccc1OC(=O)NC1CC1c1ccc(-c2ncn(-c3ccc(OC(F)(F)F)cc3)n2)cc1` (stereo not drawn) [Compound 29, 2-Isopropylphenyl 2-(4-(1-(4-(trifluoromethoxy)phenyl)-1H-1,2,4-triazol-3-yl)phenyl)-cyclopropylcarbamate], the mortality at 50 µg/cm2 in test [1] and in test [2] was 50 to 100% throughout. Further, the mortality at 200 ppm in test [3] (foliar) amounted to 0%.
As to `Cc1cc(F)ccc1OC(=O)NC1CC1c1ccc(-c2ncn(-c3ccc(OC(F)(F)F)cc3)n2)cc1` (stereo not drawn) [Compound 22, 4-Fluoro-2-methylphenyl 2-(4-(1-(4-(trifluoromethoxy)phenyl)-1H-1,2,4-triazol-3-yl)-phenyl)cyclopropylcarbamate], the mortality at 50 µg/cm2 in test [1] and in test [2] was 50 to 100% in each case. Also, in test [3] (foliar), the mortality at 200 ppm was found to be 0%.
Consider `COc1ccc(NC(=S)NC2CC2c2ccc(-c3ncn(-c4ccc(OC(F)(F)F)cc4)n3)cc2)c(OC)c1` (stereo not drawn) [Compound 10, 1-(2,4-Dimethoxyphenyl)-3-(2-{4-[1-(4-trifluoromethoxyphenyl)-1H-[1,2,4]triazol-3-yl]phenyl}cyclopropyl)thiourea], for which the mortality at 50 µg/cm2 in test [1] (setting [4]) and in test [2] (setting [4]) was 50 to 100% each time. For the same compound, the mortality at 200 ppm in test [3] (setting [5]) fell in the range of 0 to 80%.
With `CC(C)(C)c1ccccc1OC(=O)NC1CC1c1ccc(-c2ncn(-c3ccc(OC(F)(F)F)cc3)n2)cc1` (stereo not drawn) [Compound 24, 2-tert-Butylphenyl 2-(4-(1-(4-(trifluoromethoxy)phenyl)-1H-1,2,4-triazol-3-yl)phenyl)-cyclopropylcarbamate], the mortality at 50 µg/cm2 in test [1] was 0%; in test [2], 50 to 100%. Further, the mortality at 200 ppm in test [3] (foliar) fell in the range of 0 to 80%.
